These are literature values, as cited in PMC12166256 (Clinical Pharmacology and Therapeutics, 2025).

Molecules are shown by their SMILES.

The test system of the data set is TNFα. Conditions: in vitro; cited from earlier work.

Take `CN1C(=O)c2cccc(OC(F)F)c2[C@H]2C[C@@H]1c1nc3ccc(-c4cnc(C5(N)CCC5)nc4)cc3n12` [Balinatunfib]: the “concentration leading to 90% occupancy of TNFα [OCC90]” value was 16 nM.
